Test results as given in article PMC7156724, “Potent BRD4 inhibitor suppresses cancer cell-macrophage interaction” (Nature Communications, 2020).
Several values for one entry are separate records, joined by “and”; a condition that tells them apart may be missing. Identical values can stand only once.

Tests used:
[1] = Equilibrium dialysis assay, human plasma
Method: The concentration was calculated using the peak area ratio of analyte and internal […]
The results were calculated by the following equations:
% Unbound = 100 *FC / TC, % Bound = 100 * (1-FC / TC)
% Recovery = 100 * (FC + TC) / T0
TC = Total compound concentration as determined by the calculated concentration on the retentate side of the membrane
FC = Free compound concentration as determined by the calculated concentration on the dialysate side of the membrane […]
Equation of first order kinetics: […]
8. Equilibrium dialysis assay. Binding with plasma protein and recovery rate of NHWD-870 were performed with human, CD-1 mouse and SD rat plasma as […]
described 2. […] The concentration was […]
calculated using the peak area ratio of analyte and internal standard. The results were calculated by the following equations: % Unbound = 100 *FC / TC, % Bound = 100 * (1-FC / TC); % Recovery = 100 * (FC + TC) / T0; TC = Total compound concentration as determined by the calculated concentration on the retentate side of the membrane; FC = Free compound concentration as determined by the (1 picture or pasted object on this page, not shown here) […]
calculated concentration on the dialysate side of the membrane; T0 = To t a l compound concentration as determined before dialysis. […]
10. hERG channel assay. […]
HEK293 cell line stably

[2] = tested on: TAMs (CD68+ cells) in H526 tumors; experiment: Immunofluorescent staining of CD68 (TAMs) in subcutaneous H526 tumors; format: in vivo, mouse; details: subcutaneous H526 tumors from Fig. 3a, individual tumors
Excerpt: Shown are immunofluorescent staining of CD68 (macrophage marker, red) and E-Cadherin (cancer cells, green) (a) and quantification of CD68 positive cells (b) in vehicle, NHWD-870 treated H526 (n = 6) and A2780 (n = 5) tumors from Fig. 3a, b, respectively. Scale bar is 100 μm. […] Shown are representative immunofluorescent staining of Ki67 and CD68 (c) and quantification of percentage of Ki67+ cells in CD68+ cells (d). Scale bar is 30 μm. Data are presented as mean ± SEM of five different tumors. e Schematics of the animal experiments using an orthotopic mouse OC model, established by intraperitoneally injecting human A2780 cells into female recipient nude mice. […] Shown are representative immunofluorescent staining of Ki67 and CD68 (h) and quantification of Ki67^+CD68^− (i) or Ki67^+CD68^+ (j), or CD68^+ cells (k). […] Data are presented as mean ± SEM from five different mice. p values were calculated using two-tailed, unpaired t tests in this figure. *p < 0.05; **p < 0.01; ***p < 0.001. […]
Immunofluorescence staining of tumor sections was performed according to the manufacturer’s instructions. Slides were imaged using a Zeiss Axiovert 200 fluorescence microscope (Carl Zeiss MicroImaging; Thornwood, NY), and images were captured using Openlab3 software (Imprecision, Lexington, MA). Cleaved caspase 3, Ki67, CSF1, and CD68 positive cells were counted with ImageJ version 1.52s[58].

ES-2 cells = experiment: 3D matrigel assay, ES-2; format: cell-based, human; details: ES-2, 100 nM
Method: Fig. 2 NHWD-870 inhibited BRD4 phosphorylation and c-MYC expression, and suppressed cell growth. a Representative western blot analysis of p-BRD4 (s484/488), BRD4, c-MYC, and GAPDH after treatment of MDA-MB231, SUM159, A2780 ES-2, and H526 cells with JQ-1 or NHWD-870 at the indicated concentrations for 24 h. GAPDH served as the loading control. Selected from three independent experiments. b MTT assays of H526, A2780, ES-2, and MDA-MB231 cells treated with JQ-1 or NHWD-870 at the indicated concentrations for 5 days. Data are presented as mean ± SEM from three independent experiments. c, d Clonogenic assays of H526, A2780, ES-2 and MDA-MB231 cells treated with 250 nM JQ-1 or NHWD-870 for 5 days. Shown are representative images (c) and quantification of colonies (d). […] Shown are representative images (e) and quantification of relative colony sizes (f). Scale bar, 50 μm. Data are presented as mean ± SEM from five independent experiments. p values were calculated using two-tailed, unpaired t tests in this figure. **p < 0.01; ***p < 0.001. Source data are provided as a Source Data file.
Single clone spheroids were generated by culturing A2780, ES-2, H526 and MDA-MB231 cells for 16 h as a hanging drop over a humidified plate in a CO2 incubator in their corresponding complete media. […] The relative spheroid sizes were measured with ImageJ version 1.52s using the 15 representative spheroids.

Cc1nnn(C)c1-c1cnc2c3c4cnn(C)c4ccc3n([C@H](c3ccccc3)C3CCOCC3)c2c1 [NHWD-870]
% Bound ([1]; Human plasma, equilibrium dialysis): 97.5% | fraction unbound ([1]; human, plasma): 0.025 | recovery ([1]; human, plasma): 92.8% | quantification of CD68 positive cells [2]: 0.3 and 1.5 and 0.1 and 0.7 and 0.5 and 1.1 | Clone Size (relative colony size, 3D matrigel assay) (ES-2 cells): 35.3 and 32.7 and 30.1 and 25.5 and 23.9
